Experimental data published in patent US20260248787A9, “MEDICAMENT FOR TREATING CANCER COMPRISING OPTICALLY ACTIVE AZABICYCLO RING DERIVATIVE” (Sumitomo Pharma Co., Ltd., priority 2023, published 2026).
Where two headings read alike, the source gives them in different places.

Assay: Phase 1/2 clinical study, plasma pharmacokinetic evaluation
Assay type: in vivo, human
Settings: for time of maximum concentration: after dosing; for AUC(0-t) / Cmax / Tmax / half-life: human, plasma, oral; for half-life: read-out: t1/2 (converted)
Experimental: In the present test of the present compound, PK samples have been collected in up to 24 patients dosed in dose groups of 40, 80, 100, and 120 mg BID Arm A, and in dose groups of 40 and 60 mg BID Arm B (Table 6). Large preliminary PK inter-patient variability was observed.
(1) In the present study, PK samples have been collected in up to 42 patients dosed in dose groups of 40, 80, 100, 120, 140 and 200 mg BID Arm A, and in dose groups of 40, 60, 100, and 200 mg BID Arm B (Table 15).
(2) In the present study, PK samples have been collected in patients dosed in dose groups of 40, 80, 100, 120, 140, 200, and 300 mg BID Arm A, and in dose groups of 40, 60, 100, 200, and 300 mg BID Arm B (Table 16).

[1] = 40 mg, 40 mg BID Arm A, C1D1, N=2, mean
[2] = 40 mg, 40 mg BID Arm A, C2D1, N=1
[3] = 40 mg, 40 mg BID Arm B, C1D1, N=4, mean
[4] = 40 mg, 40 mg BID Arm B, C2D1, N=2, mean
[5] = 40 mg, Cycle 1 Day 1, 40 mg BID Arm A (without azole), N=2, mean
[6] = 40 mg, Cycle 1 Day 1, 40 mg BID Arm B (with azole), N=4, mean
[7] = 40 mg, Cycle 2 Day 1, 40 mg BID Arm A (without azole), N=1
[8] = 40 mg, Cycle 2 Day 1, 40 mg BID Arm B (with azole), N=2, mean
[9] = 40 mg, Table 15 cut-off, 40 mg BID Arm A, Cycle 1 Day 1, N=2, mean
[10] = 40 mg, Table 15 cut-off, 40 mg BID Arm A, Cycle 2 Day 1, N=1
[11] = 40 mg, Table 15 cut-off, 40 mg BID Arm B, Cycle 1 Day 1, N=4, mean
[12] = 40 mg, Table 15 cut-off, 40 mg BID Arm B, Cycle 2 Day 1, N=2, mean
[13] = 60 mg, 60 mg BID Arm B, C1D1, N=6, mean
[14] = 60 mg, 60 mg BID Arm B, C2D1, N=4, mean
[15] = 60 mg, Cycle 1 Day 1, 60 mg BID Arm B (with azole), N=6, mean
[16] = 60 mg, Cycle 2 Day 1, 60 mg BID Arm B (with azole), N=4, mean
[17] = 60 mg, Table 15 cut-off, 60 mg BID Arm B, Cycle 1 Day 1, N=6, mean
[18] = 60 mg, Table 15 cut-off, 60 mg BID Arm B, Cycle 2 Day 1, N=4, mean
[19] = 80 mg, 80 mg BID Arm A, C1D1, N=4, mean
[20] = 80 mg, 80 mg BID Arm A, C2D1, N=2, mean
[21] = 80 mg, Cycle 1 Day 1, 80 mg BID Arm A (without azole), N=4, mean
[22] = 80 mg, Cycle 2 Day 1, 80 mg BID Arm A (without azole), N=2, mean
[23] = 80 mg, Table 15 cut-off, 80 mg BID Arm A, Cycle 1 Day 1, N=4, mean
[24] = 80 mg, Table 15 cut-off, 80 mg BID Arm A, Cycle 2 Day 1, N=2, mean
[25] = 100 mg, 100 mg BID Arm A, C1D1, N=2, mean

With `C=C1C[C@@H]2CC[C@H]1[C@@H](C(=O)N1CCC3(CC1)CN(c1ncncc1Oc1ccc(F)cc1C(=O)N(C(C)C)C(C)C)C3)N2` [the present compound, 5-fluoro-2-[(4-{7-[(1S,3S,4R)-5-methylidene-2-azabicyclo[2.2.2]octane-3-carbonyl]-2,7-diazaspiro[3.5]nonan-2-yl}pyrimidin-5-yl)oxy]-N,N-di(propan-2-yl)benzamide] the “drug accumulation with repeat dosing” value (40-200 mg BID cut-off) was “minimal drug accumulation”, the “effect of azoles on the exposure” value (40-200 mg BID cut-off) was “do not have a large effect” and the exposure versus dose (40-200 mg BID cut-off) was “Dose-dependent increases in exposures”. For the same molecule, the “drug accumulation with repeat dosing” value (40-300 mg BID cut-off) was “minimal drug accumulation”, the “effect of azoles on the exposure” value (40-300 mg BID cut-off) was “do not have a large effect” and the exposure versus dose (40-300 mg BID cut-off) was “Dose-dependent increases in exposures”. For the same molecule, the exposure versus dose (Arm A, 40, 80, 100, 120 mg BID) was “a trend of dose-related increased in exposures”, the “impact of azoles on the exposure” value (Arm B compared with Arm A, first cut-off) was “do not have a large or dramatic impact” and the “drug accumulation with repeat dosing” value (Cycle 2 Day 1 vs Cycle 1 Day 1, first cut-off) was “minimal to no drug accumulation”. The “accumulation with repeat dosing” value (FIGS. 4A to 4D cut-off) was “minimal accumulation”, the “large drug-drug interaction (>~2-fold) with azoles” value (FIGS. 4A to 4D cut-off) was “has not identified” and the “time of maximum concentration” value (40-200 mg BID cut-off) was no more than 2 h. The “time of maximum concentration” value (40-300 mg BID cut-off) was no more than 2 h, the exposure versus dose (doses ≥140 mg BID, FIGS. 4A to 4D cut-off) was “Dose-related increases in exposures” and the AUC(0-t) [1] was 3920 ng·h/mL. For the same molecule, the Cmax [1] was 1160 ng/mL, the Tmax [1] was 1.25 h and the half-life [1] was 3.35 h. It also gave an AUC(0-t) [2] of 4710 ng·h/mL, a Cmax [2] of 772 ng/mL and a Tmax [2] of 2 h. It also gave a half-life [2] of 4.57 h, an AUC(0-t) [3] of 3270 ng·h/mL and a Cmax [3] of 976 ng/mL. For the same molecule, the Tmax [3] was 0.625 h, the half-life [3] was 4.41 h and the AUC(0-t) [4] was 5330 ng·h/mL. The Cmax [4] was 987 ng/mL, the Tmax [4] was 1.25 h and the half-life [4] was 7.29 h. The AUC(0-t) [5] was 3960 ng·h/mL, the Cmax [5] was 1160 ng/mL and the AUC(0-t) [6] was 3270 ng·h/mL. It also gave a Cmax [6] of 976 ng/mL, an AUC(0-t) [7] of 4730 ng·h/mL and a Cmax [7] of 772 ng/mL. It also gave an AUC(0-t) [8] of 5330 ng·h/mL, a Cmax [8] of 987 ng/mL and an AUC(0-t) [9] of 3960 ng·h/mL. It also gave a Cmax [9] of 1160 ng/mL, an AUC(0-t) [10] of 4730 ng·h/mL and a Cmax [10] of 772 ng/mL. The AUC(0-t) [11] was 3270 ng·h/mL, the Cmax [11] was 976 ng/mL and the AUC(0-t) [12] was 5330 ng·h/mL. It also gave a Cmax [12] of 987 ng/mL, an AUC(0-t) [13] of 4140 ng·h/mL and a Cmax [13] of 1170 ng/mL. For the same molecule, the Tmax [13] was 1.08 h, the half-life [13] was 2.61 h and the AUC(0-t) [14] was 2610 ng·h/mL. The Cmax [14] was 703 ng/mL, the Tmax [14] was 0.75 h and the half-life [14] was 3.19 h. It also gave an AUC(0-t) [15] of 4240 ng·h/mL, a Cmax [15] of 1170 ng/mL and an AUC(0-t) [16] of 2690 ng·h/mL. For the same molecule, the Cmax [16] was 751 ng/mL, the AUC(0-t) [17] was 4240 ng·h/mL and the Cmax [17] was 1170 ng/mL. It also gave an AUC(0-t) [18] of 2690 ng·h/mL, a Cmax [18] of 751 ng/mL and an AUC(0-t) [19] of 5150 ng·h/mL. It also gave a Cmax [19] of 1620 ng/mL, a Tmax [19] of 1.25 h and a half-life [19] of 2.82 h. The AUC(0-t) [20] was 2900 ng·h/mL, the Cmax [20] was 1400 ng/mL and the Tmax [20] was 0.75 h. The half-life [20] was 3.4 h, the AUC(0-t) [21] was 5110 ng·h/mL and the Cmax [21] was 1620 ng/mL. For the same molecule, the AUC(0-t) [22] was 2900 ng·h/mL, the Cmax [22] was 1400 ng/mL and the AUC(0-t) [23] was 5110 ng·h/mL. It also gave a Cmax [23] of 1620 ng/mL, an AUC(0-t) [24] of 2900 ng·h/mL and a Cmax [24] of 1400 ng/mL. The AUC(0-t) [25] was 4940 ng·h/mL and the Cmax [25] was 1380 ng/mL.
